# Data: the NIST ThermoML archive (doi:10.1016/j.fluid.2018.07.015)
# ± gives the expanded uncertainty stated by the source.
# Experiment: xn = mol fraction of the nth substance listed
# Settings: 101 kPa, Liquid, Vibrating tube method
smiles,measurement,setting,value
C=O [methanal] + O,mass density,"291.15 K, x1 = 0.05456",1025.9 ± 1 kg/m3
same,mass density,"291.15 K, x1 = 0.09849",1045.9 ± 1 kg/m3
same,mass density,"291.15 K, x1 = 0.1544",1070.2 ± 1.1 kg/m3
same,mass density,"291.15 K, x1 = 0.2019",1091.8 ± 1.1 kg/m3
same,mass density,"291.15 K, x1 = 0.2573",1112.8 ± 1.2 kg/m3
same,mass density,"298.15 K, x1 = 0.0545",1024.6 ± 1 kg/m3
same,mass density,"298.15 K, x1 = 0.09849",1044.7 ± 1 kg/m3
same,mass density,"298.15 K, x1 = 0.1544",1069.9 ± 1.1 kg/m3
same,mass density,"298.15 K, x1 = 0.2019",1089.4 ± 1.1 kg/m3
same,mass density,"298.15 K, x1 = 0.2573",1111.3 ± 1.2 kg/m3
same,mass density,"313.15 K, x1 = 0.0545",1019.6 ± 1 kg/m3
same,mass density,"313.15 K, x1 = 0.09849",1039.7 ± 1 kg/m3
same,mass density,"313.15 K, x1 = 0.1544",1066.9 ± 1.1 kg/m3
same,mass density,"313.15 K, x1 = 0.2019",1086.8 ± 1.1 kg/m3
same,mass density,"313.15 K, x1 = 0.2573",1109.9 ± 1.2 kg/m3
